Where a SMILES comes first, the peptide text is derived from it. [ ]: non-standard residue; d: D form. Tyr(3-I) = N[C@@H](Cc1ccc(O)c(I)c1)C(=O)O; Sta = CC(C)C[C@H](N)[C@@H](O)CC(=O)O; AEEA = NCCOCCOCC(=O)O
How the values were obtained:
in vivo = conditions: mouse, iv; for tissue to tissue ratio at 0.5 h / tissue to tissue ratio at 3 h / tissue to tissue ratio at 24 h: female, BALB/c nu/nu, total radioactivity; for tissue uptake at 0.5 h / tissue uptake at 3 h / tissue uptake at 24 h: 40 pmol, 40 pmol i.v.; for tissue uptake at 0.5 h: 0.5 h after injection; for tissue uptake at 3 h: 3 h after injection; for tissue uptake at 24 h: 24 h after injection
Experimental: (§1) Animal studies were planned and performed in agreement with EU Directive 2010/63/EU for animal experiments and Swedish national legislation concerning protection of laboratory animals. Experiments were approved by the Ethics Committee for Animal Research in Uppsala (C4/16, 26 February 2016). Biodistribution studies were performed in female BALB/C nu/nu mice purchased from Scanbur A/S (Karlslunde, Denmark). GRPR-expressing xenografts were established by subcutaneous injection of 5 × 10^6 PC-3 cells/mouse in the right hind leg of mice 3 weeks before the experiment. The animals were randomized into groups of four mice for each data point.
(§2) Mice were euthanized followed by dislocation of their neck at 0.5 h after injection and blood samples were collected by heart puncture. At 3 and 24 h after injection, mice were euthanized by an intraperitoneal injection of anaesthetic solution (20 µL of solution per gram of body weight: Ketalar, 10 mg/mL; Rompun, 1 mg/mL) followed by heart puncture. Salivary glands, thyroid, lung, liver, spleen, pancreas, stomach, small intestine, kidneys, tumour, muscle, and bone were collected and weighed. The organ radioactivity was measured in a gamma-counter and uptake values of organs were calculated as percentage of injected dose per gram tissue (% ID/g). To test the in vivo binding specificity, a group of mice was co-injected with 7.5 nmol of non-labelled peptide (NOTA-PEG4-RM26), and biodistribution was measured at 0.5 h after injection.

[1] = test system: GRPR-expressing PC-3 tumour xenograft; experiment: in vivo; conditions: PC-3 xenograft
Experimental: as §1, §2

[2] = small intestine, small intestine

Work on `CC(C)C[C@H](NC(=O)C[C@H](O)[C@H](CC(C)C)NC(=O)[C@H](Cc1c[nH]cn1)NC(=O)CNC(=O)[C@@H](NC(=O)[C@H](C)NC(=O)[C@H](Cc1c[nH]c2ccccc12)NC(=O)[C@H](CCC(N)=O)NC(=O)[C@@H](Cc1ccccc1)NC(=O)COCCOCCNC(=O)[C@@H](N)Cc1ccc(O)c(I)c1)C(C)C)C(N)=O` [[^125I]I-Tyr-PEG2-RM26] (H-[Tyr(3-I)][AEEA][dF]QWAVGH[Sta]L-NH2) yielded a tissue to tissue ratio at 0.5 h (in vivo; tumour and bone) of 1.9 ± 0.2, a tissue to tissue ratio at 3 h (in vivo; tumour and bone) of 1.9 ± 0.3 and a tissue to tissue ratio at 0.5 h (in vivo; tumour and kidney) of 0.5. For the same compound, the tissue to tissue ratio at 3 h (in vivo; tumour and kidney) was 0.3 ± 0.1, the tissue to tissue ratio at 24 h (in vivo; tumour and kidney) was 0.1 and the tissue to tissue ratio at 0.5 h (in vivo; tumour and liver) was 0.8 ± 0.2. The tissue to tissue ratio at 3 h (in vivo; tumour and liver) was 0.8 ± 0.2, the tissue to tissue ratio at 24 h (in vivo; tumour and liver) was 0.6 ± 0.5 and the tissue to tissue ratio at 0.5 h (in vivo; tumour and lung) was 0.8. The tissue to tissue ratio at 3 h (in vivo; tumour and lung) was 0.6 ± 0.1, the tissue to tissue ratio at 24 h (in vivo; tumour and lung) was 1 ± 0.6 and the tissue to tissue ratio at 0.5 h (in vivo; tumour and muscle) was 3.6 ± 0.4. The tissue to tissue ratio at 3 h (in vivo; tumour and muscle) was 3.7 ± 0.6, the tissue to tissue ratio at 0.5 h (in vivo; tumour and pancreas) was 0.7 ± 0.1 and the tissue to tissue ratio at 3 h (in vivo; tumour and pancreas) was 0.9 ± 0.1. It also gave a tissue to tissue ratio at 0.5 h (in vivo; tumour and salivary gland) of 1.3 ± 0.6, a tissue to tissue ratio at 3 h (in vivo; tumour and salivary gland) of 1.2 ± 0.3 and a tissue to tissue ratio at 0.5 h (in vivo; tumour and small intestine) of 1.1 ± 0.6. It also gave a tissue to tissue ratio at 3 h (in vivo; tumour and small intestine) of 1.3 ± 0.4, a tissue to tissue ratio at 0.5 h (in vivo; tumour and spleen) of 1.3 ± 0.2 and a tissue to tissue ratio at 3 h (in vivo; tumour and spleen) of 1.1 ± 0.1. The tissue to tissue ratio at 0.5 h (in vivo; tumour and stomach) was 0.6 ± 0.2, the tissue to tissue ratio at 3 h (in vivo; tumour and stomach) was 0.5 ± 0.1 and the tissue to tissue ratio at 0.5 h (in vivo; tumour and thyroid) was 1 ± 0.5. For the same compound, the tissue to tissue ratio at 3 h (in vivo; tumour and thyroid) was 1.2 ± 0.6, the tissue to tissue ratio at 0.5 h (in vivo; tumour and whole blood) was 0.7 and the tissue to tissue ratio at 3 h (in vivo; tumour and whole blood) was 0.8 ± 0.1. It also gave a tissue to tissue ratio at 24 h (in vivo; tumour and whole blood) of 6 ± 4, a tissue uptake at 0.5 h (in vivo; blood, blood) of 10.2 ± 1.5 %ID/g and a tissue uptake at 3 h (in vivo; blood, blood) of 2.9 ± 1.5 %ID/g. For the same compound, the tissue uptake at 24 h (in vivo; blood, blood) was 0.02 %ID/g, the tissue uptake at 0.5 h (in vivo; bone, bone) was 3.8 ± 0.8 %ID/g and the tissue uptake at 3 h (in vivo; bone, bone) was 1.1 ± 0.5 %ID/g. The tissue uptake at 0.5 h (in vivo; kidney, kidney) was 13.2 ± 1.8 %ID/g, the tissue uptake at 3 h (in vivo; kidney, kidney) was 6.1 ± 1.1 %ID/g and the tissue uptake at 24 h (in vivo; kidney, kidney) was 1.5 ± 0.3 %ID/g. For the same compound, the tissue uptake at 0.5 h (in vivo; liver, liver) was 8.9 ± 3.1 %ID/g, the tissue uptake at 3 h (in vivo; liver, liver) was 2.6 ± 1.1 %ID/g and the tissue uptake at 24 h (in vivo; liver, liver) was 0.2 %ID/g. It also gave a tissue uptake at 0.5 h (in vivo; lung, lung) of 9.1 ± 1.2 %ID/g, a tissue uptake at 3 h (in vivo; lung, lung) of 3.5 ± 1.4 %ID/g and a tissue uptake at 24 h (in vivo; lung, lung) of 0.2 ± 0.1 %ID/g. For the same compound, the tissue uptake at 0.5 h (in vivo; muscle, muscle) was 2 %ID/g, the tissue uptake at 3 h (in vivo; muscle, muscle) was 0.6 ± 0.3 %ID/g and the tissue uptake at 0.5 h (in vivo; pancreas, pancreas) was 10.1 ± 1.2 %ID/g. For the same compound, the tissue uptake at 3 h (in vivo; pancreas, pancreas) was 2.3 ± 0.6 %ID/g, the tissue uptake at 0.5 h (in vivo; salivary gland, salivary gland) was 6.6 ± 3.7 %ID/g and the tissue uptake at 3 h (in vivo; salivary gland, salivary gland) was 2 ± 1.2 %ID/g. For the same compound, the tissue uptake at 0.5 h (in vivo; [2]) was 7.3 ± 3 %ID/g, the tissue uptake at 3 h (in vivo; [2]) was 1.8 ± 0.7 %ID/g and the tissue uptake at 0.5 h (in vivo; spleen, spleen) was 5.4 ± 0.8 %ID/g. It also gave a tissue uptake at 3 h (in vivo; spleen, spleen) of 2 ± 0.8 %ID/g, a tissue uptake at 0.5 h (in vivo; stomach, stomach) of 13.2 ± 7.2 %ID/g and a tissue uptake at 3 h (in vivo; stomach, stomach) of 4.6 ± 2.7 %ID/g. For the same compound, the tissue uptake at 24 h (in vivo; stomach, stomach) was 0.1 %ID/g, the tissue uptake at 0.5 h (in vivo; thyroid, thyroid) was 8.2 ± 3.7 %ID/g and the tissue uptake at 3 h (in vivo; thyroid, thyroid) was 2.2 ± 1.6 %ID/g. For the same compound, the tissue uptake at 0.5 h (in vivo; tumour, tumour, non-blocked) was 7 ± 0.8 %ID/g, the tissue uptake at 3 h (in vivo; tumour, tumour) was 2.1 ± 0.8 %ID/g and the “Decrease of tumour uptake at 3 h compared to 0.5 h after injection” value [1] was “more than 3 fold”.

From paper PMC6724035, “Evaluation of Tumor-Targeting Properties of an Antagonistic Bombesin Analogue RM26 Conjugated with a Non-Residualizing Radioiodine Label Comparison with a Radiometal-Labelled Counterpart” (Pharmaceutics, 2019)
